Key:
[1] = Serum stability test of met-enkephalin liposome in fetal bovine serum; format: in vitro ADME; settings: fetal bovine serum 1:1 (v/v), 37° C. water bath, 0, 1, 2 and 4 hours, gel filtration
Source text: The 2 carriers provided by Example 5 and fetal bovine serum (FBS) were mixed with 1:1 (v/v) to form a solution.

[2] = Pharmacokinetics of endomorphin-1 liposome (plasma, LC-MS/MS); format: in vivo, wistar mouse; settings: 7.5 mg/kg, after 2 hr
Protocol: The plasma concentration of endomorphin-1 of a wistar mouse was analyzed by LC-MS/MS to study the pharmacokinetics of the endomorphin-1 liposome. […] However, the endomorphin-1 liposomes of Examples 14 and 17 prolonged the retention time of the endomorphin-1 in plasma to 24 hr. Also, T1/2 was prolonged from 6 min. to 2.4 hr and 1.8 hr, respectively.

Row | Compound | residual concentration of met-enkephalin [1] | plasma concentration of endomorphin-1 [2]
1 | met-enkephalin [free met-enkephalin] | 2% | 
2 | NC(=O)[C@H](Cc1ccccc1)NC(=O)[C@H](Cc1c[nH]c2ccccc12)NC(=O)[C@@H]1CCCN1C(=O)[C@@H](N)Cc1ccc(O)cc1 [endomorphin-1 solution, endomorphin-1] |  | no endomorphin-1 was detected

— patent US7704956B2, “Glutathione-based delivery system” (Industrial Technology Research Institute, priority 2005, dated 2010)
